# Literature values, collected in US7649096B2, “Process for the preparation of a crystalline form of (S)-N [[3-(3-fluoro-4(4-morpholinyl) phenyl]-2-oxo-5-oxazolidinyl] methyl] acetamide” (Glenmark Pharmaceuticals Limited, priority 2005, dated 2010).
# Key:
# enterococci = conditions: against enterococci
# staphylococci = conditions: against staphylococci
# streptococci = conditions: majority of strains
smiles,measurement,setting,value
"CC(=O)NC[C@H]1CN(c2ccc(N3CCOCC3)c(F)c2)C(=O)O1 [linezolid, (S)-N-[[3-[3-fluoro-4-(4-morpholinyl)phenyl]-2-oxo-5-oxazolidinyl]methyl]acetamide]",results of time-kill studies (bacteriostatic or bactericidal),enterococci,bacteriostatic
same,results of time-kill studies (bacteriostatic or bactericidal),staphylococci,bacteriostatic
same,results of time-kill studies (bacteriostatic or bactericidal),streptococci,bactericidal for the majority of strains
